Assay results as given in patent US6355799B1, “Substituted benzene compounds, process for their preparation, and herbicidal and defoliant compositions containing them” (ISK Americas Incorporated, priority 1997, dated 2002).

Legend:
Format in all cases: in vivo
[1] = tested on: redroot pigweed (Amaranthus retroflexus, AMARE); assay: Pre-emerge test, greenhouse herbicide activity screening; conditions: rating scale 0-100, 14 days after application
In short: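 Sandy loam pots; pre-emerge: sown 1 d pre-spray, surface-watered after, then bottom-watered. Post-emerge: sown 8–21 d before, 2–3 leaf stage, + 0.25% v/v NIS, bottom-watered. Acetone, 187 l/ha track spray, 15–1000 g ai/ha. 0–100 injury score, day 14.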

[2] = tested on: field corn (Zea mays L., var. Dekalb 535, CORN); assay: Post-emerge test, crop safety; conditions: rating scale 0-100 (0 no damage, 100 complete death), 14 days after application
In short: (§1)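 Compounds in acetone were track-sprayed at 15-1000 g ai/ha (187 l/ha) on sandy loam pots: pre-emerge one day after seeding, post-emerge at 2-3 leaf stage with 0.25% v/v non-ionic surfactant. Phytotoxicity was rated 14 days later on a 0 (no damage) to 100 (complete death) scale.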

[3] = tested on: upland rice (Oryza sp., var. Tebonnet, RICE); assay: Post-emerge test, crop safety; conditions: rating scale 0-100 (0 no damage, 100 complete death), 14 days after application
In short: as §1

[4] = tested on: sicklepod (Cassia obtusifolia, CASOB); assay: Post-emerge test, greenhouse herbicide activity screening; conditions: rating scale 0-100 (0 no damage, 100 complete death), 14 days after application
In short: (§2)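 Rating: 0–100 visual injury, 14 DAA. Application: acetone, 187 l/ha, 15–1000 g ai/ha, flat-fan track sprayer with nozzle 40–45 cm above soil or canopy. Post-emerge runs used 0.25% v/v surfactant on 2–3 leaf plants.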

[5] = tested on: johnsongrass (Sorghum halepense, SORHA); assay: as above; conditions: rating scale 0-100 (0 no damage, 100 complete death), 14 days after application
In short: as §2

[6] = tested on: common ragweed (Ambrosia artemisizfolia L., AMBEL); assay: as above; conditions: rating scale 0-100 (0 no damage, 100 complete death), 14 days after application
In short: as §2

[7] = tested on: redroot pigweed (Amaranthus retroflexus, AMARE); assay: as above; conditions: rating scale 0-100 (0 no damage, 100 complete death), 14 days after application
In short: as §2

[8] = tested on: lambsquarters (Chenopodium album, CHEAL); assay: as above; conditions: rating scale 0-100 (0 no damage, 100 complete death), 14 days after application
In short: as §2

[9] = tested on: velvetleaf (Abutilon theophrasti, ABUTH); assay: as above; conditions: rating scale 0-100 (0 no damage, 100 complete death), 14 days after application
In short: as §2

[10] = tested on: large crabgrass (Digitaria sanguinalis, DIGSA); assay: as above; conditions: rating scale 0-100 (0 no damage, 100 complete death), 14 days after application
In short: as §2

[11] = tested on: ivyleaf morningglory (Ipomoea hederacea, IPOHE); assay: as above; conditions: rating scale 0-100 (0 no damage, 100 complete death), 14 days after application
In short: as §2

[12] = tested on: green foxtail (Setaria viridis, SETVI); assay: as above; conditions: rating scale 0-100 (0 no damage, 100 complete death), 14 days after application
In short: as §2

[13] = tested on: barnyardgrass (Echinochloa crus-galli, ECHCG); assay: as above; conditions: rating scale 0-100 (0 no damage, 100 complete death), 14 days after application
In short: as §2

[14] = tested on: sicklepod (Cassia obtusifolia, CASOB); assay: Pre-emerge test, greenhouse herbicide activity screening; conditions: rating scale 0-100, 14 days after application
In short: as §1

[15] = tested on: johnsongrass (Sorghum halepense, SORHA); assay: as above; conditions: rating scale 0-100, 14 days after application
In short: as §1

[16] = tested on: lambsquarters (Chenopodium album, CHEAL); assay: as above; conditions: rating scale 0-100, 14 days after application
In short: as §1

[17] = tested on: velvetleaf (Abutilon theophrasti, ABUTH); assay: as above; conditions: rating scale 0-100, 14 days after application
In short: as §1

[18] = tested on: large crabgrass (Digitaria sanguinalis, DIGSA); assay: as above; conditions: rating scale 0-100, 14 days after application
In short: as §1

[19] = tested on: ivyleaf morningglory (Ipomoea hederacea, IPOHE); assay: as above; conditions: rating scale 0-100, 14 days after application
In short: as §1

[20] = tested on: green foxtail (Setaria viridis, SETVI); assay: as above; conditions: rating scale 0-100, 14 days after application
In short: as §1

[21] = tested on: barnyardgrass (Echinochloa crus-galli, ECHCG); assay: as above; conditions: rating scale 0-100, 14 days after application
In short: as §1

[22] = tested on: field corn (Zea mays L., var. Dekalb 535, CORN); assay: Pre-emerge test, crop safety; conditions: rating scale 0-100, 14 days after application
In short: (§3)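 Fourteen days after spraying, crop and weed injury was graded visually from 0, no effect, to 100, every plant dead. Test substances were dissolved in acetone and applied at 15–1000 g ai/ha with a flat-fan nozzle. Application was either pre-emergence, one day after sowing, or post-emergence at the 2–3 leaf stage.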

[23] = tested on: upland rice (Oryza sp., var. Tebonnet, RICE); assay: Pre-emerge test, crop safety; conditions: rating scale 0-100, 14 days after application
In short: as §3

## COc1c(Cl)cc(F)c(-n2c(=O)cc(C(F)(F)F)n(C)c2=O)c1CC(Cl)C(=O)OCC(F)(F)C(F)F (stereo not shown) [14-22]
[1]; 63 g ai/ha
  Pre-emerge herbicidal activity, phytotoxicity rating AMARE: 100
[1]; 250 g ai/ha
  Pre-emerge herbicidal activity, phytotoxicity rating AMARE: 100
[2]; Rate 63 g ai/ha
  Post-emerge phytotoxicity rating CORN (crop damage): 10
[2]; Rate 250 g ai/ha
  Post-emerge phytotoxicity rating CORN (crop damage): 50
[3]; Rate 63 g ai/ha
  Post-emerge phytotoxicity rating RICE (crop damage): 0
[3]; Rate 250 g ai/ha
  Post-emerge phytotoxicity rating RICE (crop damage): 10
[4]; Rate 63 g ai/ha
  Post-emerge Herbicidal Activity, phytotoxicity rating CASOB: 0
[4]; Rate 250 g ai/ha
  Post-emerge Herbicidal Activity, phytotoxicity rating CASOB: 50
[5]; Rate 63 g ai/ha
  Post-emerge Herbicidal Activity, phytotoxicity rating SORHA: 40
[5]; Rate 250 g ai/ha
  Post-emerge Herbicidal Activity, phytotoxicity rating SORHA: 60
[6]; Rate 63 g ai/ha
  Post-emerge Herbicidal Activity, phytotoxicity rating AMBEL: 100
[6]; Rate 250 g ai/ha
  Post-emerge Herbicidal Activity, phytotoxicity rating AMBEL: 100
[7]; Rate 63 g ai/ha
  Post-emerge Herbicidal Activity, phytotoxicity rating AMARE: 50
[7]; Rate 250 g ai/ha
  Post-emerge Herbicidal Activity, phytotoxicity rating AMARE: 100
[8]; Rate 63 g ai/ha
  Post-emerge Herbicidal Activity, phytotoxicity rating CHEAL: 50
[8]; Rate 250 g ai/ha
  Post-emerge Herbicidal Activity, phytotoxicity rating CHEAL: 90
[9]; Rate 63 g ai/ha
  Post-emerge Herbicidal Activity, phytotoxicity rating ABUTH: 30
[9]; Rate 250 g ai/ha
  Post-emerge Herbicidal Activity, phytotoxicity rating ABUTH: 100
[10]; Rate 63 g ai/ha
  Post-emerge Herbicidal Activity, phytotoxicity rating DIGSA: 80
[10]; Rate 250 g ai/ha
  Post-emerge Herbicidal Activity, phytotoxicity rating DIGSA: 95
[11]; Rate 63 g ai/ha
  Post-emerge Herbicidal Activity, phytotoxicity rating IPOHE: 10
[11]; Rate 250 g ai/ha
  Post-emerge Herbicidal Activity, phytotoxicity rating IPOHE: 80
[12]; Rate 63 g ai/ha
  Post-emerge Herbicidal Activity, phytotoxicity rating SETVI: 30
[12]; Rate 250 g ai/ha
  Post-emerge Herbicidal Activity, phytotoxicity rating SETVI: 60
[13]; Rate 63 g ai/ha
  Post-emerge Herbicidal Activity, phytotoxicity rating ECHCG: 100
[13]; Rate 250 g ai/ha
  Post-emerge Herbicidal Activity, phytotoxicity rating ECHCG: 100
[14]; 63 g ai/ha
  Pre-emerge herbicidal activity, phytotoxicity rating CASOB: 0
[14]; 250 g ai/ha
  Pre-emerge herbicidal activity, phytotoxicity rating CASOB: 0
[15]; 63 g ai/ha
  Pre-emerge herbicidal activity, phytotoxicity rating SORHA: 0
[15]; 250 g ai/ha
  Pre-emerge herbicidal activity, phytotoxicity rating SORHA: 0
[16]; 63 g ai/ha
  Pre-emerge herbicidal activity, phytotoxicity rating CHEAL: 20
[16]; 250 g ai/ha
  Pre-emerge herbicidal activity, phytotoxicity rating CHEAL: 90
[17]; 63 g ai/ha
  Pre-emerge herbicidal activity, phytotoxicity rating ABUTH: 0
[17]; 250 g ai/ha
  Pre-emerge herbicidal activity, phytotoxicity rating ABUTH: 70
[18]; 63 g ai/ha
  Pre-emerge herbicidal activity, phytotoxicity rating DIGSA: 0
[18]; 250 g ai/ha
  Pre-emerge herbicidal activity, phytotoxicity rating DIGSA: 50
[19]; 63 g ai/ha
  Pre-emerge herbicidal activity, phytotoxicity rating IPOHE: 0
[19]; 250 g ai/ha
  Pre-emerge herbicidal activity, phytotoxicity rating IPOHE: 0
[20]; 63 g ai/ha
  Pre-emerge herbicidal activity, phytotoxicity rating SETVI: 0
[20]; 250 g ai/ha
  Pre-emerge herbicidal activity, phytotoxicity rating SETVI: 0
[21]; 63 g ai/ha
  Pre-emerge herbicidal activity, phytotoxicity rating ECHCG: 0
[21]; 250 g ai/ha
  Pre-emerge herbicidal activity, phytotoxicity rating ECHCG: 0
[22]; 63 g ai/ha
  Pre-emerge phytotoxicity rating, crop damage CORN: 0
[22]; 250 g ai/ha
  Pre-emerge phytotoxicity rating, crop damage CORN: 0
[23]; 63 g ai/ha
  Pre-emerge phytotoxicity rating, crop damage RICE: 0
[23]; 250 g ai/ha
  Pre-emerge phytotoxicity rating, crop damage RICE: 10

## COCCOC(=O)C(Cl)Cc1c(OC)c(Cl)cc(F)c1-n1c(=O)cc(C(F)(F)F)n(C)c1=O (stereo not shown) [14-25]
[1]; 63 g ai/ha
  Pre-emerge herbicidal activity, phytotoxicity rating AMARE: 100
[1]; 250 g ai/ha
  Pre-emerge herbicidal activity, phytotoxicity rating AMARE: 100
[2]; Rate 63 g ai/ha
  Post-emerge phytotoxicity rating CORN (crop damage): 100
[2]; Rate 250 g ai/ha
  Post-emerge phytotoxicity rating CORN (crop damage): 100
[3]; Rate 63 g ai/ha
  Post-emerge phytotoxicity rating RICE (crop damage): 10
[3]; Rate 250 g ai/ha
  Post-emerge phytotoxicity rating RICE (crop damage): 50
[4]; Rate 63 g ai/ha
  Post-emerge Herbicidal Activity, phytotoxicity rating CASOB: 50
[4]; Rate 250 g ai/ha
  Post-emerge Herbicidal Activity, phytotoxicity rating CASOB: 80
[5]; Rate 63 g ai/ha
  Post-emerge Herbicidal Activity, phytotoxicity rating SORHA: 40
[5]; Rate 250 g ai/ha
  Post-emerge Herbicidal Activity, phytotoxicity rating SORHA: 95
[6]; Rate 63 g ai/ha
  Post-emerge Herbicidal Activity, phytotoxicity rating AMBEL: 100
[6]; Rate 250 g ai/ha
  Post-emerge Herbicidal Activity, phytotoxicity rating AMBEL: 100
[7]; Rate 63 g ai/ha
  Post-emerge Herbicidal Activity, phytotoxicity rating AMARE: 95
[7]; Rate 250 g ai/ha
  Post-emerge Herbicidal Activity, phytotoxicity rating AMARE: 100
[8]; Rate 63 g ai/ha
  Post-emerge Herbicidal Activity, phytotoxicity rating CHEAL: 80
[8]; Rate 250 g ai/ha
  Post-emerge Herbicidal Activity, phytotoxicity rating CHEAL: 100
[9]; Rate 63 g ai/ha
  Post-emerge Herbicidal Activity, phytotoxicity rating ABUTH: 100
[9]; Rate 250 g ai/ha
  Post-emerge Herbicidal Activity, phytotoxicity rating ABUTH: 100
[10]; Rate 63 g ai/ha
  Post-emerge Herbicidal Activity, phytotoxicity rating DIGSA: 95
[10]; Rate 250 g ai/ha
  Post-emerge Herbicidal Activity, phytotoxicity rating DIGSA: 100
[11]; Rate 63 g ai/ha
  Post-emerge Herbicidal Activity, phytotoxicity rating IPOHE: 70
[11]; Rate 250 g ai/ha
  Post-emerge Herbicidal Activity, phytotoxicity rating IPOHE: 100
[12]; Rate 63 g ai/ha
  Post-emerge Herbicidal Activity, phytotoxicity rating SETVI: 50
[12]; Rate 250 g ai/ha
  Post-emerge Herbicidal Activity, phytotoxicity rating SETVI: 80
[13]; Rate 63 g ai/ha
  Post-emerge Herbicidal Activity, phytotoxicity rating ECHCG: 100
[13]; Rate 250 g ai/ha
  Post-emerge Herbicidal Activity, phytotoxicity rating ECHCG: 100
[14]; 63 g ai/ha
  Pre-emerge herbicidal activity, phytotoxicity rating CASOB: 50
[14]; 250 g ai/ha
  Pre-emerge herbicidal activity, phytotoxicity rating CASOB: 100
[15]; 63 g ai/ha
  Pre-emerge herbicidal activity, phytotoxicity rating SORHA: 80
[15]; 250 g ai/ha
  Pre-emerge herbicidal activity, phytotoxicity rating SORHA: 100
[16]; 63 g ai/ha
  Pre-emerge herbicidal activity, phytotoxicity rating CHEAL: 100
[16]; 250 g ai/ha
  Pre-emerge herbicidal activity, phytotoxicity rating CHEAL: 100
[17]; 63 g ai/ha
  Pre-emerge herbicidal activity, phytotoxicity rating ABUTH: 100
[17]; 250 g ai/ha
  Pre-emerge herbicidal activity, phytotoxicity rating ABUTH: 100
[18]; 63 g ai/ha
  Pre-emerge herbicidal activity, phytotoxicity rating DIGSA: 70
[18]; 250 g ai/ha
  Pre-emerge herbicidal activity, phytotoxicity rating DIGSA: 100
[19]; 63 g ai/ha
  Pre-emerge herbicidal activity, phytotoxicity rating IPOHE: 70
[19]; 250 g ai/ha
  Pre-emerge herbicidal activity, phytotoxicity rating IPOHE: 100
[20]; 63 g ai/ha
  Pre-emerge herbicidal activity, phytotoxicity rating SETVI: 90
[20]; 250 g ai/ha
  Pre-emerge herbicidal activity, phytotoxicity rating SETVI: 100
[21]; 63 g ai/ha
  Pre-emerge herbicidal activity, phytotoxicity rating ECHCG: 80
[21]; 250 g ai/ha
  Pre-emerge herbicidal activity, phytotoxicity rating ECHCG: 100
[22]; 63 g ai/ha
  Pre-emerge phytotoxicity rating, crop damage CORN: 95
[23]; 63 g ai/ha
  Pre-emerge phytotoxicity rating, crop damage RICE: 90
[23]; 250 g ai/ha
  Pre-emerge phytotoxicity rating, crop damage RICE: 100
